Laboratory results taken from ChEMBL document CHEMBL1141924 (Bioorg Med Chem Lett, 2005).

Target: Carbonic anhydrase V (Homo sapiens, UniProt Q9Y2D0+P35218)

With `CC1(C)O[C@@H]2[C@@H](CO[C@@]3(COS(N)(=O)=O)OC(C)(C)O[C@@H]23)O1` [TOPIRAMATE] as the compound, how does the Ki read?
Its Ki is 25.4 nM.
